Results on 2 compounds are retold here after patent publication US10533228B2, “3.beta-hydroxysteroid dehydrogenase in steroid dependent disease” (THE CLEVELAND CLINIC FOUNDATION, priority 2013, dated 2020).

Assay [1] relates to PSA and TMPRSS2 expression. Description: AR-regulated gene expression by qPCR in LNCaP. It is filed as cell-based, human. The settings on record: qPCR normalized to RPLP0 and vehicle. Here is the method: (§1) Gene expression. To accurately quantitate each gene transcript, qPCR was performed as previously described. Chang et al., 2011. Briefly, the iTaq SYBR Green Supermix with ROX kit (Bio-Rad, Hercules, Calif.) was applied for the thermocycling reaction in an ABI-7500 Real-Time PCR machine (Applied Biosystems, Foster City, Calif.). Total RNA (1 μg) collected by RNeasy kit (QIAGEN) was used in a RT reaction with the iScript cDNA synthesis kit (Bio-Rad). The qPCR analysis was carried out in triplicate with the following primer sets: HSD3B1 (Forward: 5′-[…]-3′ (SEQ ID NO: 11); Reverse: 5′-[…]-3′ (SEQ ID NO: 12)), PSA (Forward: 5′-[…]-3′ (SEQ ID NO: 13); Reverse: 5′-[…]-3′ (SEQ ID NO: 14)), TMPRSS2 (Forward: 5′-[…]-3′ (SEQ ID NO: 15); Reverse: 5′-[…]-3′ (SEQ ID NO: 16)), the housekeeping gene large ribosomal protein P0 (RPLP0) (Forward: 5′-CGAGGGCACCTGGAAAAC-3′ (SEQ ID NO: 17); Reverse: 5′-CACATTCCCCCGGATATGA-3′ (SEQ ID NO: 18)) and GAPDH (Forward: 5′-[…]-3′ (SEQ ID NO: 19); Reverse: 5′-[…]-3′ (SEQ ID NO: 20)). Each mRNA transcript was quantitated by normalizing the sample values to RPLP0 or GAPDH and to non-silencing control cells (for knockdown) or to vehicle treated cells (for steroid treated cells). All gene expression studies were repeated in independent experiments.

Assay [2] relates to LNCaP cells. Description: Steroid metabolism (flux from [3H]-DHEA to AD), HPLC. It counts as cell-based, human. The conditions noted are these: 100 nM, after 48 hours. As to the method: (§2) Steroid metabolism experiments were performed 12 hours after seeding cells by treatment with 1 mL serum-free medium containing [^3H]-labeled DHEA (100 nM, 300,000-600,000 cpm; PerkinElmer). Aliquots of medium were collected for up to 48 hours, treated with β-glucuronidase (1000 units; Sigma-Aldrich) at 65° C. for 4 hours. Deconjugated steroids were extracted, evaporated under nitrogen stream, dissolved in 50% methanol, injected on a Breeze 1525 system equipped with model 717 plus autoinjector (Waters Corp.) and steroid metabolites were separated on a Luna 150×3 mm, […] C18 reverse-phase column (Phenomenex). The column effluent was mixed with Liquiscint scintillation cocktail (National Diagnostics) and analyzed by a β-RAM model 3 in-line radioactivity detector (IN/US Systems). Steroid metabolism experiments with transient enzyme expression were performed with pCMV5-HSD3B1 (367N and 367T) constructs 24 hours after transfection and 12 hours after treatment with 25 μM cycloheximide (CHX). […]
(§3) Cells (300,000-400,000 cells per well) were plated in 12-well plates coated with poly-L-ornithine. […] The column effluent was mixed with Liquiscint scintillation cocktail (National Diagnostics, Atlanta, Ga.) and analyzed by a β-RAM model 3 in-line radioactivity detector (LabLogic, Brandon, Fla.). […]

Assay [3] relates to LAPC4 cells. The description is as above. It is filed as cell-based, human. The settings on record: LAPC4, 100 nM, after 48 hours. As to the method:
as §2, §3

Assay [4] deals with PSA and TMPRSS2 expression. Description: AR-regulated gene expression by qPCR in LAPC4. The conditions noted are these: LAPC4, qPCR normalized to RPLP0 and vehicle. It counts as cell-based, human. Here is the method: as §1
For orientation: Quantitative PCR measures a nucleic acid by following its amplification.

In assay [5] the target is T1, 3βHSD1(367T) (Homo sapiens, UniProt P14060).
T1 construct: made in house; host or cells: Saccharomyces cerevisiae W303B (microsomes)
T1 sequence (P14060 2-373): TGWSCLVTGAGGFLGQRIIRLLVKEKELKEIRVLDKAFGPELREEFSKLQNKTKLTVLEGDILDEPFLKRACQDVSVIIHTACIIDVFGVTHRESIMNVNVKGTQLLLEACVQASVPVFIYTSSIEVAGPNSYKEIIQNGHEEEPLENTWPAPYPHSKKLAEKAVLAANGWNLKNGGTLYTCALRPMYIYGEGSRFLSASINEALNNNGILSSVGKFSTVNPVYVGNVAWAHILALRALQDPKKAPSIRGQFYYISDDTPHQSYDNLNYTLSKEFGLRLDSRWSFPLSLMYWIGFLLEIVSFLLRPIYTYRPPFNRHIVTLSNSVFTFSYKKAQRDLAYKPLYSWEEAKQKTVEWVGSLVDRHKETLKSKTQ
In words: Enzyme kinetics of DHEA metabolism, recombinant enzyme in yeast microsomes. The settings on record: Michaelis-Menten plot. It is filed as biochemical. Here is the method: (§4) Recombinant human 3βHSD1 was expressed in S cerevisciae strain W303B using yeast vector V10-3βHSD1 for wild-type and 367T proteins, and microsomes were prepared as described. Li et al., 2012. Incubations containing [^3H]-DHEA (0.5-40 μM, 100,000 cpm) and 25 μg microsomal protein in 0.25 ml of 50 mM potassium phosphate (pH 7.4) were pre-incubated at 37° C. for 1 min before initiating the reaction with NAD (0.1 mM). After 20 min at 37° C., the steroids were extracted with 1 ml dichloromethane, concentrated, and resolved on an Agilent 1260 HPLC equipped with a Kinetex 2.1×100 mm, 2.6 μm C18 reverse-phase column (Phenomenex, Torrance, Calif.) using methanol-water gradients at 0.4 ml/min. The column effluent was analyzed with a β-RAM4 (LabLogic) in-line scintillation counter and Bio-SafeII cocktail (Research Products International). Means of triplicate determinations were plotted as v versus [S], and kinetic constants Km and Vmax were obtained by fitting the data to the Michaelis-Menten equation using Origin version 7.5.

Assay [6] addresses T2, 3βHSD1(367N) (Homo sapiens, UniProt P14060, T367N).
T2 construct: made in house; host or cells: Saccharomyces cerevisiae W303B (microsomes)
T2 sequence (P14060 1-373 T367N): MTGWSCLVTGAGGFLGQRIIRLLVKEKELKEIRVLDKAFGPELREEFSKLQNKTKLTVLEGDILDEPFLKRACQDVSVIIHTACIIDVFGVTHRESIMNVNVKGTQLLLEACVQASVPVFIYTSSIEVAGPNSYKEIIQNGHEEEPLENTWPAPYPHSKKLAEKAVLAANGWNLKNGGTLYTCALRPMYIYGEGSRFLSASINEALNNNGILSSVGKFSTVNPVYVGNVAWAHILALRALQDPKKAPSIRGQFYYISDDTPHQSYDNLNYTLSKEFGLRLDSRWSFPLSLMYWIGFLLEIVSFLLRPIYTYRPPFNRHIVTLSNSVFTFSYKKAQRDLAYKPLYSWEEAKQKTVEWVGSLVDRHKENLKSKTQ
Described as above. It is filed as biochemical. The conditions noted are these: Michaelis-Menten plot. As to the method:
as §4

Assay [7] concerns 3βHSD. The conditions noted are these: cited from earlier work.

As a reminder, the Km is the substrate concentration at which the rate is half of its maximum.

Consider `C[C@]12CC[C@H](O)CC1=CC[C@@H]1[C@@H]2CC[C@]2(C)C(=O)CC[C@@H]12` [DHEA, dehydroepiandrosterone], for which the “PSA and TMPRSS2 expression” value in assay [1] is “induces PSA and TMPRSS2 expression in a concentration-dependent manner”; in assay [4], “absence of DHEA concentration-dependent increases in AR-regulated PSA and TMPRSS2”. For the same compound, the “[3H]-DHEA metabolized by 3βHSD enzymatic activity to AD” value in assay [2] was more than 90%; in assay [3], “approximately 10%”. Also, the Km in assay [5] was 7 µM; in assay [6], 32 µM.

As for `CC(=O)O[C@H]1CC[C@@]2(C)C(=CC[C@@H]3[C@@H]2CC[C@]2(C)C(c4cccnc4)=CC[C@@H]32)C1` [abiraterone, abiraterone acetate], the “inhibition of 3βHSD” value in assay [7] was “weakly inhibits”.
